Laboratory results as given in patent publication US4243408A, “Herbicidal N-triazolylmethyl-substituted alpha-haloacetanilide” (Chevron Research Company, priority 1978, dated 1981).

system: Crabgrass (Digitaria sanguinalis); assay: Pre-Emergent Test, herbicidal effectiveness; format: in vivo; conditions: pre-emergence, 504 h, 33 micrograms per cm^2, 3 weeks, 0-to-100 scale, read-out: Herbicidal Effectiveness, % Control Pre, C
Protocol: (§1) An acetone solution of the test compound was prepared by mixing 750 mg of the compound, 220 mg of a nonionic surfactant and 25 ml of acetone. This solution was added to approximately 125 ml of water containing 156 mg of surfactant.
(§2) Seeds of the test vegetation were planted in a pot of soil and the test solution was sprayed uniformly onto the soil surface at a dose of 33 micrograms/cm^2. The pot was watered and placed in a greenhouse. […] At the end of this period, the herbicidal effectiveness of the compound was rated based on the physiological observations. A 0-to-100 scale was used, 0 representing no phytotoxicity, 100 representing complete kill.

SMILES | pest or weed control at 33 µg/cm2
CCc1cccc(CC)c1N(Cc1nnc(SC)n1C)C(=O)CCl [Compound 23B] | 0%
Cc1cccc(C)c1NCc1nnc(S)n1C [Compound 3, 3-(2,6-dimethylphenylaminomethyl)-4-methyl-5-mercapto-1,2,4-triazole] | 0%
Cc1nnc(CN(C(=O)CCl)c2ccccc2C)[nH]1 [Compound 25B] | 97%
CCc1cccc(C)c1NCc1nnc(S)n1C [Compound 19] | 0%
Cc1cccc(C)c1N(Cc1nnc[nH]1)C(=O)CCl [Compound 9B] | 100%

system: Lambsquarter (Chenopodium album); assay: Pre-Emergent Test, herbicidal effectiveness; format: in vivo; conditions: pre-emergence, 504 h, 33 micrograms per cm^2, 3 weeks, 0-to-100 scale, read-out: Herbicidal Effectiveness, % Control Pre, L
Protocol: as §1, §2

SMILES | pest or weed control at 33 µg/cm2
CCc1cccc(CC)c1N(Cc1nnc(SC)n1C)C(=O)CCl [Compound 23B] | 0%
Cc1cccc(C)c1NCc1nnc(S)n1C [Compound 3, 3-(2,6-dimethylphenylaminomethyl)-4-methyl-5-mercapto-1,2,4-triazole] | 0%
Cc1nnc(CN(C(=O)CCl)c2ccccc2C)[nH]1 [Compound 25B] | 100%
CCc1cccc(C)c1NCc1nnc(S)n1C [Compound 19] | 0%
Cc1cccc(C)c1N(Cc1nnc[nH]1)C(=O)CCl [Compound 9B] | 100%

system: Mustard (Brassica arvensis); assay: Pre-Emergent Test, herbicidal effectiveness; format: in vivo; conditions: pre-emergence, 504 h, 33 micrograms per cm^2, 3 weeks, 0-to-100 scale
Protocol: as §1, §2

SMILES | pest or weed control at 33 µg/cm2
CCc1cccc(CC)c1N(Cc1nnc(SC)n1C)C(=O)CCl [Compound 23B] | 0%
Cc1cccc(C)c1NCc1nnc(S)n1C [Compound 3, 3-(2,6-dimethylphenylaminomethyl)-4-methyl-5-mercapto-1,2,4-triazole] | 0%
Cc1nnc(CN(C(=O)CCl)c2ccccc2C)[nH]1 [Compound 25B] | 45%
CCc1cccc(C)c1NCc1nnc(S)n1C [Compound 19] | 0%
Cc1cccc(C)c1N(Cc1nnc[nH]1)C(=O)CCl [Compound 9B] | 55%

system: Pigweed (Amaranthus retroflexus); assay: Pre-Emergent Test, herbicidal effectiveness; format: in vivo; conditions: pre-emergence, 504 h, 33 micrograms per cm^2, 3 weeks, 0-to-100 scale, read-out: Herbicidal Effectiveness, % Control Pre, P
Protocol: as §1, §2

SMILES | pest or weed control at 33 µg/cm2
CCc1cccc(CC)c1N(Cc1nnc(SC)n1C)C(=O)CCl [Compound 23B] | 0%
Cc1cccc(C)c1NCc1nnc(S)n1C [Compound 3, 3-(2,6-dimethylphenylaminomethyl)-4-methyl-5-mercapto-1,2,4-triazole] | 0%
Cc1nnc(CN(C(=O)CCl)c2ccccc2C)[nH]1 [Compound 25B] | 70%
CCc1cccc(C)c1NCc1nnc(S)n1C [Compound 19] | 0%
Cc1cccc(C)c1N(Cc1nnc[nH]1)C(=O)CCl [Compound 9B] | 100%

system: Watergrass (Echinochloa); assay: Pre-Emergent Test, herbicidal effectiveness; format: in vivo; conditions: pre-emergence, 504 h, 11 micrograms per cm^2, 3 weeks, 0-to-100 scale, read-out: Herbicidal Effectiveness, % Control Pre, W
Protocol: as §1, §2

SMILES | pest or weed control at 11 µg/cm2
CCc1cccc(CC)c1N(Cc1nnc(C)[nH]1)C(=O)CCl [Compound 5B] | 100%

same assay, conditions: pre-emergence, 504 h, 33 micrograms per cm^2, 3 weeks, 0-to-100 scale, read-out: Herbicidal Effectiveness, % Control Pre, W

SMILES | pest or weed control at 33 µg/cm2
CCc1cccc(CC)c1N(Cc1nnc(SC)n1C)C(=O)CCl [Compound 23B] | 0%
Cc1cccc(C)c1NCc1nnc(S)n1C [Compound 3, 3-(2,6-dimethylphenylaminomethyl)-4-methyl-5-mercapto-1,2,4-triazole] | 0%
Cc1nnc(CN(C(=O)CCl)c2ccccc2C)[nH]1 [Compound 25B] | 100%
CCc1cccc(C)c1NCc1nnc(S)n1C [Compound 19] | 0%
Cc1cccc(C)c1N(Cc1nnc[nH]1)C(=O)CCl [Compound 9B] | 100%

system: Wild Oats (Avena fatua); assay: Pre-Emergent Test, herbicidal effectiveness; format: in vivo; conditions: pre-emergence, 504 h, 11 micrograms per cm^2, 3 weeks, 0-to-100 scale, read-out: Herbicidal Effectiveness, % Control Pre, O
Protocol: as §1, §2

SMILES | pest or weed control at 11 µg/cm2
CCc1cccc(C)c1N(Cc1nnc(C)[nH]1)C(=O)CCl [Compound 6B] | 100%

same assay, conditions: pre-emergence, 504 h, 33 micrograms per cm^2, 3 weeks, 0-to-100 scale, read-out: Herbicidal Effectiveness, % Control Pre, O

SMILES | pest or weed control at 33 µg/cm2
CCc1cccc(CC)c1N(Cc1nnc(SC)n1C)C(=O)CCl [Compound 23B] | 0%
Cc1cccc(C)c1NCc1nnc(S)n1C [Compound 3, 3-(2,6-dimethylphenylaminomethyl)-4-methyl-5-mercapto-1,2,4-triazole] | 0%
Cc1nnc(CN(C(=O)CCl)c2ccccc2C)[nH]1 [Compound 25B] | 0%
CCc1cccc(C)c1NCc1nnc(S)n1C [Compound 19] | 0%
Cc1cccc(C)c1N(Cc1nnc[nH]1)C(=O)CCl [Compound 9B] | 100%

system: Crabgrass (Digitaria sanguinalis); assay: Post-Emergent Test, herbicidal effectiveness; format: in vivo; conditions: post-emergence, 504 h, 33 micrograms per cm^2, 3 weeks, 0-to-100 scale, read-out: Herbicidal Effectiveness, % Control Post, C

SMILES | pest or weed control at 5000 µg/mL, 33 µg/cm2
CCc1cccc(CC)c1N(Cc1nnc(SC)n1C)C(=O)CCl [Compound 23B] | 0%
Cc1cccc(C)c1NCc1nnc(S)n1C [Compound 3, 3-(2,6-dimethylphenylaminomethyl)-4-methyl-5-mercapto-1,2,4-triazole] | 0%
Cc1nnc(CN(C(=O)CCl)c2ccccc2C)[nH]1 [Compound 25B] | 0%
CCc1cccc(C)c1NCc1nnc(S)n1C [Compound 19] | 0%
Cc1cccc(C)c1N(Cc1nnc[nH]1)C(=O)CCl [Compound 9B] | 70%

system: Lambsquarter (Chenopodium album); assay: Post-Emergent Test, herbicidal effectiveness; format: in vivo; conditions: post-emergence, 504 h, 33 micrograms per cm^2, 3 weeks, 0-to-100 scale, read-out: Herbicidal Effectiveness, % Control Post, L

SMILES | pest or weed control at 5000 µg/mL, 33 µg/cm2
CCc1cccc(CC)c1N(Cc1nnc(SC)n1C)C(=O)CCl [Compound 23B] | 0%
Cc1cccc(C)c1NCc1nnc(S)n1C [Compound 3, 3-(2,6-dimethylphenylaminomethyl)-4-methyl-5-mercapto-1,2,4-triazole] | 0%
Cc1nnc(CN(C(=O)CCl)c2ccccc2C)[nH]1 [Compound 25B] | 0%
CCc1cccc(C)c1NCc1nnc(S)n1C [Compound 19] | 0%
Cc1cccc(C)c1N(Cc1nnc[nH]1)C(=O)CCl [Compound 9B] | 25%

system: Mustard (Brassica arvensis); assay: Post-Emergent Test, herbicidal effectiveness; format: in vivo; conditions: post-emergence, 504 h, 33 micrograms per cm^2, 3 weeks, 0-to-100 scale

SMILES | pest or weed control at 5000 µg/mL, 33 µg/cm2
CCc1cccc(CC)c1N(Cc1nnc(SC)n1C)C(=O)CCl [Compound 23B] | 0%
Cc1cccc(C)c1NCc1nnc(S)n1C [Compound 3, 3-(2,6-dimethylphenylaminomethyl)-4-methyl-5-mercapto-1,2,4-triazole] | 0%
Cc1nnc(CN(C(=O)CCl)c2ccccc2C)[nH]1 [Compound 25B] | 0%
CCc1cccc(C)c1NCc1nnc(S)n1C [Compound 19] | 0%
Cc1cccc(C)c1N(Cc1nnc[nH]1)C(=O)CCl [Compound 9B] | 25%

system: Pigweed (Amaranthus retroflexus); assay: Post-Emergent Test, herbicidal effectiveness; format: in vivo; conditions: post-emergence, 504 h, 33 micrograms per cm^2, 3 weeks, 0-to-100 scale, read-out: Herbicidal Effectiveness, % Control Post, P

SMILES | pest or weed control at 5000 µg/mL, 33 µg/cm2
CCc1cccc(CC)c1N(Cc1nnc(SC)n1C)C(=O)CCl [Compound 23B] | 0%
Cc1cccc(C)c1NCc1nnc(S)n1C [Compound 3, 3-(2,6-dimethylphenylaminomethyl)-4-methyl-5-mercapto-1,2,4-triazole] | 0%
Cc1nnc(CN(C(=O)CCl)c2ccccc2C)[nH]1 [Compound 25B] | 0%
CCc1cccc(C)c1NCc1nnc(S)n1C [Compound 19] | 0%
Cc1cccc(C)c1N(Cc1nnc[nH]1)C(=O)CCl [Compound 9B] | 0%

system: Watergrass (Echinochloa); assay: Post-Emergent Test, herbicidal effectiveness; format: in vivo; conditions: post-emergence, 504 h, 33 micrograms per cm^2, 3 weeks, 0-to-100 scale, read-out: Herbicidal Effectiveness, % Control Post, W

SMILES | pest or weed control at 5000 µg/mL, 33 µg/cm2
CCc1cccc(CC)c1N(Cc1nnc(SC)n1C)C(=O)CCl [Compound 23B] | 0%
Cc1cccc(C)c1NCc1nnc(S)n1C [Compound 3, 3-(2,6-dimethylphenylaminomethyl)-4-methyl-5-mercapto-1,2,4-triazole] | 0%
Cc1nnc(CN(C(=O)CCl)c2ccccc2C)[nH]1 [Compound 25B] | 40%
CCc1cccc(C)c1NCc1nnc(S)n1C [Compound 19] | 0%
Cc1cccc(C)c1N(Cc1nnc[nH]1)C(=O)CCl [Compound 9B] | 75%

system: Wild Oats (Avena fatua); assay: Post-Emergent Test, herbicidal effectiveness; format: in vivo; conditions: post-emergence, 504 h, 33 micrograms per cm^2, 3 weeks, 0-to-100 scale, read-out: Herbicidal Effectiveness, % Control Post, O

SMILES | pest or weed control at 5000 µg/mL, 33 µg/cm2
CCc1cccc(CC)c1N(Cc1nnc(SC)n1C)C(=O)CCl [Compound 23B] | 0%
Cc1cccc(C)c1NCc1nnc(S)n1C [Compound 3, 3-(2,6-dimethylphenylaminomethyl)-4-methyl-5-mercapto-1,2,4-triazole] | 0%
Cc1nnc(CN(C(=O)CCl)c2ccccc2C)[nH]1 [Compound 25B] | 0%
CCc1cccc(C)c1NCc1nnc(S)n1C [Compound 19] | 0%
Cc1cccc(C)c1N(Cc1nnc[nH]1)C(=O)CCl [Compound 9B] | 65%
